Data taken from patent publication US20230226079A1, “METHODS AND COMPOSITIONS FOR TREATMENT OF SOLID TUMORS” (Saint Louis University, priority 2022, published 2023).
“Also recorded” adds a separate entry of the source.

Columns and labels:
Ca127 cells = assay: Cytotoxicity assay (Cell Counting Kit-8) in Ca127 cells; assay type: cell-based; conditions: 48 h, treated for 48 h; read-out: IC50 dose, Ca127 cells
Text: Normal oral keratinocytes (NOK) (kindly gifted by Dr. Karl Mugner, Tuffs University, Boston, MA, USA) were maintained in Keratinocyte SFM medium supplemented with EGF and bovine pituitary extract (GIBCO, Life Technologies, Berkeley, MO, USA) and 1% penicillin/ streptomycin. HNC cell line Ca127 was purchased from the ATCC. JHU029 (JHU-29) and JHU022 (JHU-22) cell lines were procured from the Johns Hopkins University (Baltimore, MD, USA). The Ca127 and JHU022 cells were maintained in Dulbecco's Modified Eagle Medium (DMEM), and JHU029 cells were in RPMI1640 (Sigma, St. Louis, Mo., USA) media supplemented with 10% FBS and 1% penicillin/ streptomycin (Sigma-Aldrich, St. Louis, Mo., USA) in a humidified CO2 incubator. The cell lines are routinely tested in the Inventors' laboratory to rule out mycoplasma contamination using a commercial Mycoplasma Detection kit (MycoAlert™, Lonza, Morrisville, N.C., USA). Ca127 cells are tongue origin and JHU022 and JHU029 cells are from larynx origin.
Bitter melon extract (BME) was prepared from the Chinese variety of young bitter melons (raw and green) as described previously (Rajamoorthi et al. (2013) PLoS ONE; 8, e78006). Briefly, BME was prepared by aqueous extraction from whole fruit without seeds using a household juicer at room temperature with subsequent centrifugation at 15000 g at 4 C for 30 min. BME was stored at −80 C for further analysis. […]

[1] = system: c-Myc, survivin and cyclin D1; assay: Western blot for STAT3 downstream molecules in HNC cells; assay type: cell-based; conditions: Ca127 and JHU029 cells
Protocol: The powder was dissolved in DMSO and added to the cells at different concentrations. Based on cytotoxicity data, Ca127 and JHU029 cells were treated with 10 ug/mL and JHU022 cells were treated with 20 ug/mL dose of M-I and incubated for 48 hr for further experiments. All the experiments were done at least in triplicate.
HRP conjugated anti-mouse or anti-rabbit secondary antibodies were purchased from Bio-Rad (Hercules, Calif., USA). The blot was reprobed with HRP conjugated -actin antibody (1:5000; SBT) to compare protein load in each lane. Densitometry analysis was done using Image J software (NIH, Bethesda, Md., USA).

[2] = Pharmacokinetic study, single dose; assay type: in vivo, mice; conditions: for AUC (% Extrap): C57BI/6 male mice
Protocol: The pharmacokinetic (PK) study of M-I was performed in male C57B1/6 mice. A single dose of M-I (formulated at 2 mg/mL dissolved in 5% DMSO/95% of a 30% w:v Captisol solution) was administered either by intraperitoneal injection (IP group, n=3) or oral gavage (PO group, n=3). After dosing, 20 uL blood samples were collected into heparin pre-coated tubes at 5 min, 15 min, 30 min, 1 h, 2 h, 4 h, 6 h, 8 h and 24 h. Samples were centrifuged, and the plasma collected. M-I concentration was determined using liquid chromatography-mass spectrometry/mass spectrometry (LC-MS/MS) as described earlier (Fuerst et al. (2018) Chem.; 26, 4984-4995).

JHU029 xenograft = assay: Tumorigenicity assay, JHU029 xenograft model; assay type: in vivo, nude mice
Protocol: JHU029 or Ca127 cells (1.5 10^6) containing 40% Matrigel were injected subcutaneously into the flank of BALB/c athymic nude mice (7-8 weeks old). When the palpable tumor was developed (>60 mm3), mice were divided into three groups randomly, 5 mice in each group. The control group was without any treatment. The BME group received 30% (v/v) BME through drinking water. M-I group received 30 mg/kg dose of M-I once in day, every day. Body weight was monitored, and tumor size was measured using a slide caliper and volume was calculated using the formula 1/2 L X W2. After animal sacrifice tumors were dissected out and snap frozen in liquid nitrogen for further analysis. All the animal experiments were carried out in accordance NIH guidelines, following a protocol approved (1017) by the Institutional Animal Care and Use Committee (IACUC) of Saint Louis University.

[3] = system: TNBC cell lines MDA-MB-231, BT459 and MDA-MB-468; assay: TNBC cell cytotoxicity assays; assay type: cell-based
Text: The Inventors tested human MDA-MB-231 and mouse 4T1 cells in dose dependent manner (FIG. 8). […] The Inventors also tested other compounds in TNBC cell cytotoxicity assays, but these required much higher amounts (>[…]) even for ˜40% cell death.

[4] = system: normal mammary epithelial cells; assay: Cytotoxicity in normal mammary epithelial cells; assay type: cell-based, human
NK3.3 cells = assay: NK-cell viability; assay type: cell-based
Protocol: FIG. 9 illustrates NK3.3 cells treated with bitter melon extract or M-I and cell viability was measured at 48h or 72h after treatment. Results shown are an average of three independent experiments. Small bar indicates standard error. (* p <0.05)
NK cells are implicated in drug induced resistant cancer cells to drive tumor growth (Smalley et al., 2020). […] Bitter melon extract was used as a control. Control or M-I treated NK3.3 cells were also cocultured with MDA-MB-231 cells at 1:5 (Target:Effector) ratio for 24 h and stained for viable/dead cells. […] The apoptotic markers were further examined by Western blot analysis.

[5] = literature; listed as Momordicine I; cited from earlier work
insulin secretion = conditions: in vitro; cited from earlier work

CC(C)=CC(O)CC(C)[C@H]1CC[C@@]2(C)[C@@H]3[C@@H](O)C=C4[C@@H](CC[C@H](O)C4(C)C)[C@]3(C=O)CC[C@]12C (stereo partly drawn) [M-I, (3S, 7S, 8S, 9R, 10R, 13R, 14S, 17R) 3,7-dihydroxy-17-(4-hydroxy-6-methylhept-5-en-2-yl)-4,4,13,14-tetramethyl-2,3,7,8,10,11, 12,15, 16,17-decahydro-1H-cyclopenta[a]phenanthrene-9-carbaldehyde]
IC50 (Ca127 cells): < 8 µg/mL | STAT3 downstream molecules c-Myc, survivin and cyclin D1 [1]: significant inhibition | adverse events after single dose, IP group ([2]; 20 mg/kg IP): No adverse events | adverse events after single dose, oral group ([2]; 20 mg/kg PO, starting four hours post-dose, not resolved by 8 h, normal after twenty-four hours): loose stool | AUC (% Extrap) ([2]; 20 mg/Kg IP): 0.33 ± 0.08% | AUC (% Extrap) ([2]; 20 mg/Kg PO): 6.84 ± 1.5% | reduction of tumor growth, M-I compared with BME (JHU029 xenograft; M-I 30 mg/kg IP once a day versus BME 30% in drinking water): better effect | tumor volume (JHU029 xenograft; M-I 30 mg/kg IP once a day, BME 30% in drinking water, sacrifice day 32): significantly reduced tumor volume | sudden drop in body weight (JHU029 xenograft; three out of five mice, Day 20, M-I 30 mg/kg IP once a day, weight gained back): −10% | cell growth of TNBC cell lines [3]: inhibits cell growth in a time-dependent manner | effect on human normal mammary epithelial cells [4]: minimum effect | NK-cell viability (NK3.3 cells): no cytotoxic effect | Reported Biology [5]: stimulate insulin; also recorded: cardiac fibrosis | insulin secretion (insulin secretion): stimulate insulin secretion
